Reference: PubChem BioAssay AID256 (DTP/NCI, 2004)
Several values for one entry are separate records, joined by “and”; a condition that tells them apart may be missing. Equal values may be shown once. Inconclusive results and toxic doses are left out.

System: CD2F1 mice, L1210 leukemia ip, survival T/C
Test: NCI In Vivo Anticancer Drug Screen. Data for tumor model L1210 Leukemia (intraperitoneal) in CD2F1 (CDF1) mice
Details: higher = longer survival
In short: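 Transplantable tumor in mice; compound-treated vs vehicle-treated groups. Read-out = treated/control ratio of the measured endpoint.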

[1] = endpoint: mean survival time, dose: 100.0 mg/kg/injection, schedule: Q01DX009 (ip), vehicle: saline
[2] = endpoint: mean survival time, dose: 200.0 mg/kg/injection, schedule: Q01DX009 (ip), vehicle: saline
[3] = endpoint: mean survival time, dose: 100.0 mg/kg/injection, schedule: Q04DX003 (ip), vehicle: saline with Tween-80
[4] = endpoint: mean survival time, dose: 100.0 mg/kg/injection, schedule: Q01DX009 (ip), vehicle: saline with Tween-80
[5] = endpoint: mean survival time, dose: 200.0 mg/kg/injection, schedule: Q01DX009 (ip), vehicle: saline with Tween-80
[6] = endpoint: mean survival time, dose: 400.0 mg/kg/injection, schedule: Q01DX009 (ip), vehicle: saline with Tween-80
[7] = endpoint: mean survival time, dose: 200.0 mg/kg/injection, schedule: Q04DX003 (ip), vehicle: saline with Tween-80
[8] = endpoint: mean survival time, dose: 100.0 mg/kg/injection, schedule: Q04DX002 (ip), vehicle: saline with Tween-80
[9] = endpoint: mean survival time, dose: 200.0 mg/kg/injection, schedule: Q04DX002 (ip), vehicle: saline with Tween-80
[10] = endpoint: mean survival time, dose: 400.0 mg/kg/injection, schedule: Q04DX002 (ip), vehicle: saline with Tween-80
[11] = endpoint: mean survival time, dose: 100.0 mg/kg/injection, schedule: Q01DX001 (ip), vehicle: saline with Tween-80
[12] = endpoint: mean survival time, dose: 200.0 mg/kg/injection, schedule: Q01DX001 (ip), vehicle: saline with Tween-80
[13] = endpoint: mean survival time, dose: 400.0 mg/kg/injection, schedule: Q01DX001 (ip), vehicle: saline with Tween-80

O=C(O)CC(=O)CC(=O)O.[NH-]C1CCCCC1[NH-].[Pt+2]
T/C (endpoint: median survival time, dose: 3.12 mg/kg/injection, schedule: Q04DX003 (ip), vehicle: saline): 101 % of control and 108 % of control | T/C (endpoint: median survival time, dose: 6.25 mg/kg/injection, schedule: Q04DX003 (ip), vehicle: saline): 114 % of control and 108 % of control | T/C (endpoint: median survival time, dose: 12.5 mg/kg/injection, schedule: Q04DX003 (ip), vehicle: saline): 118 % of control and 112 % of control | T/C (endpoint: median survival time, dose: 25.0 mg/kg/injection, schedule: Q04DX003 (ip), vehicle: saline): 122 % of control | T/C (endpoint: median survival time, dose: 100.0 mg/kg/injection, schedule: Q04DX003 (ip), vehicle: saline): 162 % of control and 294 % of control | T/C (endpoint: median survival time, dose: 200.0 mg/kg/injection, schedule: Q04DX003 (ip), vehicle: saline): 241 % of control

O.O=C(O)CN(CCN(CC(=O)O)CC(=O)O)CC(=O)O.[Rh+2]
T/C [1]: 100 % of control | T/C [2]: 94 % of control | T/C (endpoint: mean survival time, dose: 200.0 mg/kg/injection, schedule: Q04DX003 (ip), vehicle: saline sonified): 95 % of control | T/C (endpoint: mean survival time, dose: 400.0 mg/kg/injection, schedule: Q01DX009 (ip), vehicle: saline): 96 % of control

CC(=O)CC(Br)CBr (centres undefined)
T/C [3]: 96 % of control

c1ccc(Oc2cc[c]([Sn]([c]3ccccc3)([c]3ccccc3)[c]3ccc(Oc4ccccc4)cc3)cc2)cc1
T/C [4]: 106 % of control | T/C [5]: 100 % of control | T/C [6]: 98 % of control

O=C1C=CC(=O)N1c1cc(Cl)ccc1Cl
T/C [3]: 93 % of control | T/C [7]: 93 % of control

C(=C\c1cc[n+](CCc2ccccc2)cc1)/c1ccccc1
T/C (endpoint: mean survival time, dose: 6.25 mg/kg/injection, schedule: Q01DX009 (ip), vehicle: saline with Tween-80): 104 % of control | T/C (endpoint: mean survival time, dose: 12.5 mg/kg/injection, schedule: Q01DX009 (ip), vehicle: saline with Tween-80): 98 % of control | T/C (endpoint: mean survival time, dose: 25.0 mg/kg/injection, schedule: Q01DX009 (ip), vehicle: saline with Tween-80): 108 % of control

O=C1C(Cl)=C(c2ccccc2)C(OC2(c3ccccc3)C(Cl)C(=O)C(Cl)C2c2ccccc2)(c2ccccc2)C1Cl (centres undefined)
T/C [8]: 96 % of control | T/C [9]: 101 % of control | T/C [10]: 96 % of control

O=C(COc1ccccc1)NC(=S)Nc1ccc([N+](=O)[O-])cc1Cl
T/C [4]: 88 % of control and 89 % of control | T/C [8]: 95 % of control | T/C [5]: 93 % of control and 94 % of control | T/C [9]: 87 % of control | T/C [6]: 92 % of control and 93 % of control | T/C [10]: 91 % of control

CCCCCCCCCCCCCCCCCCCOc1ccc(OCCCCCCCCCCCCCC)cc1
T/C [11]: 86 % of control | T/C [12]: 88 % of control | T/C [13]: 88 % of control

O=C(Nc1ccc2c(c1)OCO2)O/N=C1\C(=O)Nc2ccccc21
T/C [3]: 100 % of control | T/C [7]: 86 % of control

CC(=O)C(C(C)=O)C(c1ccccc1Cl)C(C(C)=O)C(C)=O
T/C [4]: 98 % of control | T/C [5]: 102 % of control | T/C [6]: 95 % of control

C[As](C)[Se]CC1OC(O)C(O)C(O)C1O (centres undefined)
T/C (endpoint: mean survival time, dose: 12.5 mg/kg/injection, schedule: Q04DX003 (ip), vehicle: saline with Tween-80): 97 % of control | T/C (endpoint: mean survival time, dose: 25.0 mg/kg/injection, schedule: Q04DX003 (ip), vehicle: saline with Tween-80): 101 % of control | T/C (endpoint: mean survival time, dose: 50.0 mg/kg/injection, schedule: Q04DX003 (ip), vehicle: saline with Tween-80): 98 % of control

Cc1ccc(S(=O)(=O)CC(=O)O)cc1
T/C [3]: 102 % of control | T/C [7]: 102 % of control

NCCCc1ccccc1
T/C [1]: 103 % of control | T/C [2]: 90 % of control

COC(=O)c1cccc(OCC(=O)Nc2ccccc2)c1
T/C [11]: 101 % of control | T/C [12]: 93 % of control | T/C [13]: 92 % of control

O=C(O)/C=C\c1cccc([N+](=O)[O-])c1
T/C [4]: 94 % of control | T/C [5]: 103 % of control | T/C [6]: 88 % of control
